Reference: patent publication US20230384322A1, “COMPLEMENTOME ASSAY” (Complement Therapeutics Limited, priority 2020, published 2023)

Key:
[1] = test system: U87 GBM cells; assay: Real-time RT-PCR of CFH/FHL-1/IDO expression in cultured U87 GBM cells; type: cell-based, human
Experimental: (§1) FIGS. 13A to 13E. Indoleamine 2,3 dioxygenase 1 (IDO) non-metabolically increases complement factor H (CFH) levels in human glioblastoma (GBM). (13A) Flow chart for the microarray experimental design, data analysis, as well as validation of results. Real-time RT-PCR confirmation of IDO regulatory effects on CFH expression in cultured (13B) U87 or (13C) PDX43 GBM. Cells were exposed to a variety of conditions including transfection with IDO specific siRNA (20 nM) or scrambled control siRNA for 16 hours, treatment with or without 100 ng/mL human interferon-gamma (IFN-γ), treatment with or without the IDO enzyme inhibitor, BGB-5777 (1 uM), or IFNγ plus BGB-5777 for 24 hours. Quantitative RT-PCR was performed (n=3 reflecting one representative experiment from 4 experimental repeats). (13D) Quantitative RT-PCR analysis of IDO and CFH mRNA expression on IFNγ-stimulated U87 cells treated with CFH siRNA or scrambled control siRNA. Same experimental conditions as in [13B] (n=3/group reflecting one representative experiment from 3 experimental repeats). (13E) mRNA expression levels for human IDO, CFH, and CD3 were quantified and compared among intracranial PDX43 and patient-resected newly-diagnosed or recurrent intracranial human GBM (n=4-9/group). Intracranially-engrafted (ic.) PDX43 was isolated from humanized mice with or without treatment of CD4′ and CD8^+ T cell depleting antibodies between 14-21 days post-intracranial injection. ***, P<0.001; ND: not detectable, ns: not significant. All bar graphs represent mean±SEM.
FIGS. 15A to 15H. Indoleamine 2,3 dioxygenase 1 (IDO) enhances the expression of both complement factor H (CFH) isoforms in human glioblastoma (GBM). (15A) Schematic representation of CFH transcript variants reflecting the full-length (CFH) and truncated (FHL-1) sequences. Pearson's correlation analysis of (15B) IDO and (15C) CD3E with CFH and FHL-1 using the TCGA GBM RNA-Seq dataset. (15D) Left panel: Western blot analysis of surgically-resected tumor tissue samples from both newly diagnosed GBM patients and recurrent GBM patients. Right panel: Protein expression of full-length and truncated CFH variants and IDO in IFNγ-stimulated U87 cells. Cells were treated with IFNγ and cultured in serum-free medium for 24 to 48 hours. Both cell lysates and cell culture supernatants were collected. The supernatants were concentrated with ultrafiltration and analyzed by Western blot along with cell lysate samples. One representative result is shown that reflects 4 experimental repeats. (15E) Time course analysis of IDO, CFH, FHL-1 mRNA expression after treatment with IFNγ in U87 (top row) and PDX43 (bottom row) GBM cells. The U87 cells were stimulated with 100 ng/ml human IFNγ and RNA lysates were extracted followed by quantitative RT-PCR analysis (n=4). (15F) Western blot of cell lysates and supernatants collected from the same experimental design as in top panel. Data from one representative experiment from 2 experiments are shown. (15G) Top panel: Western blot showing IDO protein levels in unmodified (Unmod.) as well as in CRISPR-Cas9 IDO-deleted (IDOKO) U87 cells. Unmod. U87 cells and IDOKO U87 cells were stimulated with 100 ng/mL human IFNγ for 24 hours. Protein lysates were collected from both untreated and IFNγ treated cells followed by Western blotting analysis; Lower panel: HPLC measurement of kynurenine (Kyn) and tryptophan (Trp) in Unmod. U87 and IDOKO U87 cells. (15H) Comparison of IDO, CFH, and FHL-1 mRNA expression induction in Unmod. and IDOKO U87 cells using quantified RT-PCR (n=3 per group that reflects 1 representative experiment after 2 repeats). ***, P<0.001; ND: not detectable. All bar graphs represent mean±SEM.
The microarray analysis was carried out at the Northwestern University NUSeq Core Facility using the human transcriptome analysis system, Clariom™ D Assay (Thermo Fisher Scientific). Briefly, 1×10^5 cells per well of U87 cells or IDO-OE U87 cells were seeded on 12-well plate. […]

[2] = test system: U87 cells; assay: Western blotting of CFH, FHL-1 and IDO in U87 cell lysates and supernatants; type: cell-based, human; settings: serum-free medium 24 to 48 hours
From the text: FIGS. 15A to 15H. Indoleamine 2,3 dioxygenase 1 (IDO) enhances the expression of both complement factor H (CFH) isoforms in human glioblastoma (GBM). (15A) Schematic representation of CFH transcript variants reflecting the full-length (CFH) and truncated (FHL-1) sequences. Pearson's correlation analysis of (15B) IDO and (15C) CD3E with CFH and FHL-1 using the TCGA GBM RNA-Seq dataset. (15D) Left panel: Western blot analysis of surgically-resected tumor tissue samples from both newly diagnosed GBM patients and recurrent GBM patients. Right panel: Protein expression of full-length and truncated CFH variants and IDO in IFNγ-stimulated U87 cells. Cells were treated with IFNγ and cultured in serum-free medium for 24 to 48 hours. Both cell lysates and cell culture supernatants were collected. The supernatants were concentrated with ultrafiltration and analyzed by Western blot along with cell lysate samples. One representative result is shown that reflects 4 experimental repeats. […] The U87 cells were stimulated with 100 ng/ml human IFNγ and RNA lysates were extracted followed by quantitative RT-PCR analysis (n=4). […] (15H) Comparison of IDO, CFH, and FHL-1 mRNA expression induction in Unmod. and IDOKO U87 cells using quantified RT-PCR (n=3 per group that reflects 1 representative experiment after 2 repeats). ***, P<0.001; ND: not detectable. […]

[3] = test system: U87, PDX12, PDX39, and PDX43; assay: In vitro expression analysis of human CFH mRNA in different GBM cells with or without human IFNγ; type: cell-based
From the text: FIGS. 14A to 14I. Indoleamine 2,3 dioxygenase 1 (IDO) and complement factor H (CFH) mRNA levels positively correlate with T cell infiltration in patient-resected glioblastoma (GBM). (14A) mRNA expression levels for IDO and CFH in grade II (green; n=226), grade III (blue; n=249), and grade IV (GBM; red; n=172) glioma of the RNA Hi-Seq. Illumina dataset as analyzed in the cancer genome atlas (TCGA). Horizontal lines in the scatter plots represents mean±SEM. (14B) Pearson's correlation analysis for IDO and CFH mRNA levels within GBM and all-grade glioma. […] CFH mRNA levels were analyzed in U87 GBM cells co-cultured with either naïve or activated T cells or conditioned medium from activated T cells in the presence or absence of IFNγ-neutralizing antibodies. […]
Total RNA was extracted from freshly dissected tissue samples and cultured cells using the Trizol Reagent and PureLink RNA Mini Kit (Thermo Fisher Scientific), respectively. […] Quantitative real-time PCR was performed on a CFX96 Touch Real-Time PCR Detection System using the default program setting (Bio-Rad). […] The relative quantitation of gene expression was calculated using the 2-AACT method (29) with normalization of the target threshold cycle (CT) values to the internal housekeeping gene (GAPDH).

[4] = test system: PDX43 GBM cells; assay: Real-time RT-PCR of CFH/FHL-1/IDO expression in cultured PDX43 GBM cells; type: cell-based, human; settings: IFNγ time course
Experimental: as §1, with “Same experimental conditions as in [13B] (n=3/group reflecting one representative experiment from 3 experimental repeats).” left out, “Intracranially-engrafted (ic.) PDX43 was isolated from humanized mice with or without treatment of CD4′ and CD8^+ T cell depleting antibodies between 14-21 days post-intracranial injection. ***, P<0.001; ND: not detectable, ns: not significant. All bar graphs represent mean±SEM.” left out
FIGS. 15A to 15H. […] The supernatants were concentrated with ultrafiltration and analyzed by Western blot along with cell lysate samples. […] The U87 cells were stimulated with 100 ng/ml human IFNγ and RNA lysates were extracted followed by quantitative RT-PCR analysis (n=4). […]

[5] = molecular target: C3b

Molecule: IDO-specific siRNA: human IDO-specific siRNA duplex (GE Health Dharmacon), SEQ ID NO:174 and 175 (chain 1 GCUUAUGACGCCUGUGUGAUU; chain 2 UCACACAGGCGUCAUAAGCUU; listed as RNA, chemistry not given here; listed as Homo sapiens)
- Effect on CFH expression (quantitative RT-PCR) ([1]; U87 cells, siRNA 20 nM, 16 hours): decreased expression of CFH

Molecule: IFNγ: human recombinant interferon-gamma (Shenandoah Biotechnology), T cell effector cytokine
- CFH and FHL-1 protein expression in cell culture supernatants (Western blot) [2]: higher
- Earliest time IDO mRNA expression is detectable after treatment ([1]; 100 ng/ml human IFNγ time course): 4 h
- IDO, CFH and FHL-1 mRNA expression induction ([1]; CRISPR-Cas9 IDO-deleted (IDOKO) U87 cells): no such increase
- Effect on CFH expression (quantitative RT-PCR) ([1]; U87 cells, 100 ng/mL, 24 hours): increase of CFH expression
- Earliest time full-length and truncated CFH variants increased after treatment ([1]; U87 cells, 100 ng/ml human IFNγ time course): 12 h
- IDO, CFH and FHL-1 mRNA expression induction ([1]; unmodified U87 cells, 100 ng/mL): induced and upregulated
- Effect on CFH mRNA expression in human GBM cells [3]: increased CFH expression
- Earliest time full-length and truncated CFH variants increased after treatment [4]: 12 h

B1: Complement Factor I (FI) (protein)
chain: KVTYTSQEDLVEKKCLAKKYTHLSCDKVFCQPWQRCIEGTCVCKLPYQCPKNGTAVCATNRRSFPTYCQQKSLECLHPGTKFLNNGTCTAEGKFSVSLKHGNTDSEGIVEVKLVDQDKTMFICKSSWSMREANVACLDLGFQQGADTQRRFKLSDLSINSTECLHVHCRGLETSLAECTFTKRRTMGYQDFADVVCYTQKADSPMDDFFQCVNGKYISQMKACDGINDCGDQSDELCCKACQGKGFHCKSGVCIPSQYQCNGEVDCITGEDEVGCAGFASVTQEETEILTADMDAERRRIKSLLPKLSCGVKNRMHIRRKRIVGGKRAQLGDLPWQVAIKDASGITCGGIYIGGCWILTAAHCLRASKTHRYQIWTTVVDWIHPDLKRIVIEYVDRIIFHENYNAGTYQNDIALIEMKKDGNKKDCELPRSIPACVPWSPYLFQPNDTCIVSGWGREKDNERVFSLQWGEVKLISNCSKFYGNRFYEKEMECAGTYDGSIDACKGDSGGPLVCMDANNVTYVWGVVSWGENCGKPEFPGVYTKVANYFDWISYHVGRPFISQYNV
- C3b breakdown in vitro (C3b incubated with FI and a fragment of cofactor CR1; time course followed by gel electrophoresis and GluC/SRM-MS) [5]: the formation of C3b fragments iC3b, C3f and C3c, and loss of intact C3b can be clearly detected over time
